This note sets out measurements from ChEMBL document CHEMBL1136063, “Oxal hydroxamic acid derivatives with inhibitory activity against matrix metalloproteinases” (Bioorg Med Chem Lett, 2002).

Usually residual activity stands for the activity still measured, relative to the control. Usually Ki stands for the equilibrium dissociation constant of an inhibitor or competing ligand from its target. Usually inhibition stands for the percentage by which the read-out fell short of the control.

In assay [1] the target is T1, Neutrophil collagenase (Homo sapiens, UniProt P22894). Briefly: Percent remaining enzyme activity (RA) in neutrophil collagenase (matrix metalloprotease-8). Also on record: concentration or dose not given beside the values.
Target sequence in this assay (P22894 101-467 limits assumed): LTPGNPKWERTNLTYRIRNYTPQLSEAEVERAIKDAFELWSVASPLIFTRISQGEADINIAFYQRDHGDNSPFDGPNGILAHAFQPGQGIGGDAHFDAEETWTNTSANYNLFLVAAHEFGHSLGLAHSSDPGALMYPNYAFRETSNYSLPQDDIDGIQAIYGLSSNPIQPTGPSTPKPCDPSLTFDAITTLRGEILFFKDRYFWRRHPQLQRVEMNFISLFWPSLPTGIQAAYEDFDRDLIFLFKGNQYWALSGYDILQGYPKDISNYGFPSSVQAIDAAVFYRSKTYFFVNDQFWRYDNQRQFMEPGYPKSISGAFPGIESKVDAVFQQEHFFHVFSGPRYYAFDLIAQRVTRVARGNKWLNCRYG
In assay [2] the target is T2, Matrix metalloproteinase-9 (Homo sapiens, UniProt P14780). Briefly: Percent remaining enzyme activity (RA) in human gelatinase B (matrix metalloprotease-9). Also on record: concentration or dose not given beside the values.
T2 sequence (P14780 whole entry, the tested form may be a part): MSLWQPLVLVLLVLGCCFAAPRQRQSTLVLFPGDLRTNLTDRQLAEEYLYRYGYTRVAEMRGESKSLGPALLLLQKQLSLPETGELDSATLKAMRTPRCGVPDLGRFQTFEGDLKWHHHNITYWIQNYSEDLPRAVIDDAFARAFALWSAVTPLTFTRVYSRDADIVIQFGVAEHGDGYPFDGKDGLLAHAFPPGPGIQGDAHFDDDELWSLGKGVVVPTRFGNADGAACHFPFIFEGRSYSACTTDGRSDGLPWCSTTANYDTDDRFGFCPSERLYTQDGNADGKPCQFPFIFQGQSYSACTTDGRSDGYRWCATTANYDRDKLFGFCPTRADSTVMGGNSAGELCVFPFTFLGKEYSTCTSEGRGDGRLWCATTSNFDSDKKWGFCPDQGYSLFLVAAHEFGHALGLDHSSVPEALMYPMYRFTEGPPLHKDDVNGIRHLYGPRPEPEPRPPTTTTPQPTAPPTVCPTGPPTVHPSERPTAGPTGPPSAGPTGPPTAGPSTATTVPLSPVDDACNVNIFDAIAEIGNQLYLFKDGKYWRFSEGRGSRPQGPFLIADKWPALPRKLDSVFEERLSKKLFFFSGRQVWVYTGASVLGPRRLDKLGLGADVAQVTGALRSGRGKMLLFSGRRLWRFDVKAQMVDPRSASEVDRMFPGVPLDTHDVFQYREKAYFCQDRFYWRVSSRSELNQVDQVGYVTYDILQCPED
In assay [3] the target is T3, Matrix metalloproteinase-14 (Homo sapiens, UniProt P50281). Briefly: Percent remaining enzyme activity (RA) in catalytic domains of the membrane type MT1-MMP (matrix metalloprotease-14). Details: concentration or dose not given beside the values.
The target in assay [4] is T3, Matrix metalloproteinase-14. Briefly: (§1) Inhibition of membrane type MT1-MMP (Matrix metalloprotease-14)catalytic domain.
Assay [5] addresses T2, Matrix metalloproteinase-9. The assay can be described thus: Inhibitory activity against human gelatinase B (matrix metalloprotease-9).
Assay [6] addresses T1, Neutrophil collagenase. Briefly: Tested for its inhibitory activity against neutrophil collagenase (Matrix metalloprotease-8).
Target sequence in this assay (P22894 whole entry): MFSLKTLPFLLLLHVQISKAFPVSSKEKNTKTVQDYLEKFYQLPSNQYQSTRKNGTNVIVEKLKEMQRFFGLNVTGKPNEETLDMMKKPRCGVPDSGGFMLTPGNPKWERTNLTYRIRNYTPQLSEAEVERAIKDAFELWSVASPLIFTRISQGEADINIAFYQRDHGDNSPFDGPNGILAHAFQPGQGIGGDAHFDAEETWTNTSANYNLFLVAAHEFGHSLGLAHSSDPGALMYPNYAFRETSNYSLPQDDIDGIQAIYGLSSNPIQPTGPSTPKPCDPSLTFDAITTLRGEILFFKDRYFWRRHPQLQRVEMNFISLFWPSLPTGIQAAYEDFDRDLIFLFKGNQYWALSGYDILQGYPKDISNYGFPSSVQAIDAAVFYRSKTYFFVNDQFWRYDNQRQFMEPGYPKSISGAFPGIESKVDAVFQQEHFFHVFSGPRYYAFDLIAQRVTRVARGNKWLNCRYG
Assay [7] addresses T3, Matrix metalloproteinase-14. Described as §1. The conditions noted are these: concentration not given here.

SMILES strings stand for the structures.

For `CCCC[C@H](NC(=O)C(=O)NO)C(=O)N[C@H](Cc1ccc(OCc2ccccc2)cc1)C(=O)N(C)C`, the figures for the residual activity (at Neutrophil collagenase [1]; in assay [2]; in assay [3]) were 34%, 13% and 29%, respectively. Moreover, the Ki in assay [4] amounted to 33 µM; in assay [5], 7.5 µM.

`C[C@@H](NC(=O)C(=O)NO)c1ccc2ccccc2c1`: the figures for the residual activity (at Neutrophil collagenase [1]; in assay [2]; in assay [3]) were 43%, 7% and 54%, respectively. Moreover, the affinity in assay [5] corresponds to a Ki of 3.3 µM.

With `CN(C)C(=O)[C@H](Cc1ccc(COc2ccccc2)cc1)NC(=O)C(=O)NO`, the residual activity on Neutrophil collagenase [1] turned out to be 43%; in assay [2] it was 7%; in assay [3], 37%. The figures for the Ki (on Neutrophil collagenase [6]; in assay [5]) were 22 µM and 3 µM, respectively.

On to `C[C@H](NC(=O)[C@H](Cc1ccc(NC(=O)Nc2ccccc2)cc1)NC(=O)C(=O)NO)c1ccccc1`, for which the values for the residual activity (at Neutrophil collagenase [1]; in assay [2]; in assay [3]) were 6%, 5% and 74%, respectively. Moreover, the Ki amounted to 1 µM on Neutrophil collagenase [6] and 0.8 µM in assay [5].

As for `CC(OCc1ccccc1)[C@H](NC(=O)C(=O)NO)C(=O)N[C@@H](C)c1ccccc1` (some centres undefined), the results for the residual activity (on Neutrophil collagenase [1]; in assay [2]; in assay [3]) were 8%, 11% and 71%, respectively. Besides, the Ki on Neutrophil collagenase [6] stood at 3 µM; in assay [5], 3.2 µM.

With `CC(C)C[C@H](NC(=O)C(=O)NO)C(=O)N(C)C`, the residual activity was determined as 72% on Neutrophil collagenase [1], 55% in assay [2] and 61% in assay [3].

As to `C[C@H](NC(=O)C(=O)NO)C(=O)N[C@@H](C)c1ccccc1`, the residual activity on Neutrophil collagenase [1] worked out at 9%; in assay [2] it was 35%. Moreover, the inhibition in assay [7] was determined as 80%. Besides, the Ki stood at 6 µM at Neutrophil collagenase [6], 180 µM in assay [4] and 9 µM in assay [5].

Turning to `C[C@H](NC(=O)[C@H](COCc1ccccc1)NC(=O)C(=O)NO)c1ccccc1`, the residual activity was determined as 1% at Neutrophil collagenase [1], 6% in assay [2] and 19% in assay [3]. For the same compound, the Ki was found to be 11 µM in assay [4] and 3.3 µM in assay [5].

On to `C[C@H](NC(=O)[C@H](Cc1ccc(O)cc1)NC(=O)C(=O)NO)c1ccccc1`, for which the residual activity at Neutrophil collagenase [1] stood at 0%; in assay [2], 0%; in assay [3] it was 54%. For the same compound, the values for the Ki (on Neutrophil collagenase [6]; in assay [5]) were 0.25 µM and 0.6 µM, respectively.

For the compound `CN(C)C(=O)[C@H](Cc1cccc2ccccc12)NC(=O)C(=O)NO`, the residual activity at Neutrophil collagenase [1] turned out to be 47%; in assay [2] it was 15%; in assay [3] it was 26%. In assay [5], the Ki was 8.2 µM.

On to `O=C(NO)C(=O)N[C@@H](Cc1ccc(COc2ccccc2)cc1)C(=O)NO`, for which the residual activity at Neutrophil collagenase [1] was 5%; in assay [2], 2%; in assay [3] it was 23%.

With `CC(NC(=O)[C@H](Cc1ccccc1)NC(=O)C(=O)NO)c1cccc2ccccc12` (some centres undefined), the residual activity on Neutrophil collagenase [1] amounted to 5%; in assay [2] it was 2%; in assay [3] it was 42%.

In the case of `CCCCC(CC)COCCCNC(=O)C(=O)NO` (centres undefined), the residual activity on Neutrophil collagenase [1] was found to be 12%; in assay [2], 3%; in assay [3], 14%. Moreover, the figures for the Ki (at Neutrophil collagenase [6]; in assay [4]; in assay [5]) were 7 µM, 9 µM and 0.25 µM, respectively.

As for `CN(C)C(=O)[C@H](Cc1ccccc1)NC(=O)C(=O)NO`, the results for the residual activity (on Neutrophil collagenase [1]; in assay [2]; in assay [3]) were 48%, 25% and 15%, respectively. The figures for the Ki (at Neutrophil collagenase [6]; in assay [4]; in assay [5]) were 38 µM, 9.5 µM and 14 µM, respectively.

`CC(OCc1ccccc1)[C@H](NC(=O)C(=O)NO)C(=O)N(C)C` (some centres undefined): the residual activity at Neutrophil collagenase [1] was determined as 67%; in assay [2], 18%; in assay [3] it was 66%. Besides, the figures for the Ki (on Neutrophil collagenase [6]; in assay [5]) were 75 µM and 4 µM, respectively.

Regarding `C[C@H](NC(=O)[C@H](Cc1ccccc1)NC(=O)C(=O)NO)c1ccccc1`, the values for the residual activity (at Neutrophil collagenase [1]; in assay [2]; in assay [3]) were 1%, 1% and 36%, respectively. For the same compound, the Ki on Neutrophil collagenase [6] came out at 0.43 µM; in assay [4], 14 µM; in assay [5], 0.9 µM.

Regarding `C[C@H](NC(=O)[C@H](Cc1cccc2ccccc12)NC(=O)C(=O)NO)c1ccccc1`, the residual activity was determined as 0% at Neutrophil collagenase [1] and 1% in assay [2]. Also, the figures for the Ki (at Neutrophil collagenase [6]; in assay [4]; in assay [5]) were 0.3 µM, 29 µM and 0.15 µM, respectively.

In the case of `C[C@H](NC(=O)[C@H](Cc1ccc(OCc2ccccc2)cc1)NC(=O)C(=O)NO)c1ccccc1`, the values for the residual activity (on Neutrophil collagenase [1]; in assay [2]; in assay [3]) were 5%, 11% and 69%, respectively.

Take `C[C@H](NC(=O)[C@H](Cc1c[nH]c2ccccc12)NC(=O)C(=O)NO)c1ccccc1`: the residual activity amounted to 2% at Neutrophil collagenase [1], 1% in assay [2] and 36% in assay [3]. The Ki amounted to 0.4 µM at Neutrophil collagenase [6] and 0.1 µM in assay [5].

Take `CN(C)C(=O)[C@H](Cc1ccc2ccccc2c1)NC(=O)C(=O)NO`: the residual activity was 15% at Neutrophil collagenase [1], 19% in assay [2] and 30% in assay [3]. Moreover, the values for the Ki (on Neutrophil collagenase [6]; in assay [5]) were 6 µM and 44 µM, respectively.

On to `O=C(NO)C(=O)NCCc1c[nH]c2ccc(Cl)cc12`, for which the residual activity stood at 15% on Neutrophil collagenase [1], 2% in assay [2] and 35% in assay [3]. For the same compound, the Ki came to 14 µM at Neutrophil collagenase [6], 35 µM in assay [4] and 0.35 µM in assay [5].

With `CC(C)C[C@H](NC(=O)C(=O)NO)C(=O)N[C@H](C)c1ccccc1`, the residual activity at Neutrophil collagenase [1] worked out at 74%; in assay [2], 60%; in assay [3], 79%.

As to `CN(C)C(=O)[C@@H](Cc1ccc(OCc2ccccc2)cc1)NC(=O)[C@H](Cc1ccccc1)NC(=O)C(=O)NO`, the figures for the residual activity (on Neutrophil collagenase [1]; in assay [2]; in assay [3]) were 10%, 3% and 5%, respectively. The figures for the Ki in assay [4] and in assay [5] were 1.4 µM and 1 µM, respectively.

As to `O=C(NO)C(=O)NCCN(C(=O)C(=O)NO)c1cccc2ccccc12`, the residual activity stood at 14% at Neutrophil collagenase [1], 0% in assay [2] and 20% in assay [3]. This compound also displayed a Ki in assay [5] of 0.1 µM.

For `O=C(NO)C(=O)NCCC(NC(=O)C(=O)NO)C1CCCCC1` (centres undefined), the residual activity was determined as 39% on Neutrophil collagenase [1], 5% in assay [2] and 48% in assay [3].

As for `O=C(NO)C(=O)NCCc1c[nH]c2ccccc12`, the residual activity was 18% at Neutrophil collagenase [1], 3% in assay [2] and 48% in assay [3]. Besides, the affinity in assay [5] corresponds to a Ki of 0.8 µM.

For `CNC(=O)[C@H](Cc1ccc(OCc2ccccc2)cc1)NC(=O)C(=O)NO`, the residual activity at Neutrophil collagenase [1] was 4%; in assay [2], 1%; in assay [3] it was 53%. In addition, the Ki on Neutrophil collagenase [6] is 1.5 µM; in assay [5] it was 2 µM.

`CC(C)C[C@H](NC(=O)C(=O)NO)C(=O)N[C@@H](C)c1ccccc1`: the values for the residual activity (on Neutrophil collagenase [1]; in assay [2]; in assay [3]) were 3%, 9% and 54%, respectively. Further, the Ki worked out at 1.7 µM on Neutrophil collagenase [6], 20 µM in assay [4] and 5.5 µM in assay [5].

With `C[C@H](NC(=O)[C@H](CC(=O)OCc1ccccc1)NC(=O)C(=O)NO)c1ccccc1`, the residual activity on Neutrophil collagenase [1] came out at 1%; in assay [2], 3%; in assay [3], 53%. The affinity in assay [5], expressed as Ki, was 0.6 µM.

Take `CN(C)C(=O)[C@H](Cc1c[nH]c2ccccc12)NC(=O)C(=O)NO`: the figures for the residual activity (on Neutrophil collagenase [1]; in assay [2]; in assay [3]) were 44%, 25% and 33%, respectively. Moreover, the values for the Ki (at Neutrophil collagenase [6]; in assay [4]; in assay [5]) were 28 µM, 15 µM and 4.4 µM, respectively.

Consider `CN(C)C(=O)[C@H](COCc1ccccc1)NC(=O)C(=O)NO`, for which the residual activity on Neutrophil collagenase [1] worked out at 56%; in assay [2], 40%; in assay [3], 41%.

As for `C[C@H](NC(=O)[C@H](Cc1ccc2ccccc2c1)NC(=O)C(=O)NO)c1ccccc1`, the residual activity came out at 4% at Neutrophil collagenase [1], 5% in assay [2] and 37% in assay [3]. For the same compound, the Ki on Neutrophil collagenase [6] came out at 1 µM; in assay [5], 0.5 µM.

For the compound `C[C@H](NC(=O)[C@H](Cc1ccc(NC(=O)OCc2ccccc2)cc1)NC(=O)C(=O)NO)c1ccccc1`, the residual activity stood at 32% on Neutrophil collagenase [1], 22% in assay [2] and 76% in assay [3].

`C[C@H](NC(=O)C(=O)NO)c1ccc2ccccc2c1`: the residual activity at Neutrophil collagenase [1] is 89%; in assay [2] it was 67%; in assay [3] it was 80%.
